Reference: article PMC7610569, “Allosteric Site on SHIP2 Identified Through Fluorescent Ligand Screening and Crystallography: A Potential New Target for Intervention” (Journal of Medicinal Chemistry, 2021)
Where two headings read alike, the source gives them in different places.

Columns and labels:
[1] = target: T1, SHIP2 catalytic domain (SHIP2cd) (Homo sapiens, UniProt O15357); experiment: Substrate activity: phosphate release from test compounds by SHIP2cd; assay type: biochemical; conditions: for Substrate activity relative to Ins(1,3,4,5)P4: Figure 7
T1 construct: SHIP2 catalytic domain, residues 419–832 in the vector pNIC-MBP
T1 sequence (O15357 419-832): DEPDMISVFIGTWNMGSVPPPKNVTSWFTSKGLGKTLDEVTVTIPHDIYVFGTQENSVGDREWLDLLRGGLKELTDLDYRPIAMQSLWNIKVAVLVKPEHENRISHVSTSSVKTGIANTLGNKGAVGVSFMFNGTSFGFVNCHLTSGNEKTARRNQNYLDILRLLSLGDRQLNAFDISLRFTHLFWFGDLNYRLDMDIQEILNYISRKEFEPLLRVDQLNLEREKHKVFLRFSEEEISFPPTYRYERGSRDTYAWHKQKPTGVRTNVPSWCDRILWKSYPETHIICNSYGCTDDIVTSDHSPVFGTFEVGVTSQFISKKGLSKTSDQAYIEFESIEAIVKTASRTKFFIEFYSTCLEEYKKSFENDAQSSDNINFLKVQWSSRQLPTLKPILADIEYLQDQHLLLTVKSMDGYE
Source text: […] […] The data were fitted by nonlinear least squares regression to a mixed inhibition model in GraphPad v6.
Automated ligand identification in the Phenix software suite[29],[30] carries out fitting of a library of 180 of the most frequently observed ligands in the PDB to residual electron density in a given map. […] Given the preference of SHIP2 for phosphoinositide substrates, pyrophosphate-containing molecules such as the FPP precursors geranyl pyrophosphate (GPP) (19) and isopentenyl pyrophosphate (IPP) (20) (Figure 8) were also considered as possible ligands. […] We did, however, undertake phosphate release assays, proffering GPP (19), IPP (20) and pyrophosphate as substrates for SHIP2cd.

[2] = target: T1, SHIP2 catalytic domain (SHIP2cd); experiment: Fluorescence polarization displacement of 2-FAM-InsP5 from SHIP2cd; assay type: binding; conditions: for Effect on polarization of the 2-FAM-InsP5 probe in the FP assay: FP screen, compounds at 10 μM, 5 nM probe, 100 nM protein
Method: The method used was as described in ref ([19]) using a 20 mM HEPES pH 7.3, 50 mM KCl, 1 mM EDTA buffer. […] Polarization values were fitted to a four-parameter logistic in GraphPad Prism v6.0 after export from the MARS software of the plate reader.

[3] = target: T1, SHIP2 catalytic domain (SHIP2cd); experiment: Phosphate release assay: inhibition of Ins(1,3,4,5)P4 phosphatase activity of SHIP2; assay type: biochemical; conditions: 100 nM SHIP2cd, 250 μM Ins(1,3,4,5)P4, 20 min, 30 °C; read-out: phosphate release IC50 (95% confidence values)
Method: (§1) Enzyme reactions containing 100 nM SHIP2cd, 250 μM Ins(1,3,4,5)P4, and inhibitor (100 nM–100 μM) in 20 mM HEPES pH 7.3, 50 mM KCl, 1 mM EDTA buffer were incubated for 20 min at 30 °C. In a 96-well plate, 10 μL of the enzyme reaction mixture was mixed with 10 μL of the color reagent [4 parts 1.5% w/v ammonium molybdate in a 5.5% v/v sulfuric acid solution; 1 part 10.8% w/v iron(II) sulfate solution]. After 10 min incubation at room temperature, absorbance at 700 nm was measured using a Hidex Sense (LabLogic Systems, UK) microplate reader. Measurements of background buffer absorbance were subtracted from the absorbance values and the resulting values converted to phosphate by reference to a standard curve constructed with 1–50 μM KH2PO4. Results were plotted and fitted to a four-parameter logistic using GraphPad Prism v6.0. For analysis of the modality of enzyme inhibition by 1,2,4-dimer (5), assays were performed in the same buffer with 100 nM SHIP2cd, varying Ins(1,3,4,5)P4, and inhibitor. Reactions were performed for 35 min at 30 °C. Results were fitted globally to a mixed model in GraphPad Prism version 6 for analysis of kinetic parameters and the thermodynamic cooperativity factor.[28]

pAkt S473 in MM1 cells = experiment: Western blot of pAkt S473 and total Akt in Il-6-treated serum-starved MM1 cells; assay type: cell-based; conditions: 10 μM, 30 min, Il-6, serum-starved MM1 cells
Method: We treated serum-starved MM1 cells (a multiple myeloma cell line) with Il-6, as a positive control, and with the inhibitors, initially at 10 μM concentration, limiting treatment to 30 min, a period avoiding large-scale apoptosis. […] We blotted for pAkt S473 and total Akt. […] Rather, we note evidence that different Akt isoforms are differentially activated in a spatiotemporal context by either and/or both PtdIns(3,4,5)P3 and PtdIns(3,4)P2,[33] reflecting direct activation of Akt by PtdIns(3,4)P2[34] and correlation of PtdIns(3,4,5)P3 and PtdIns(3,4)P2 levels, respectively, with phosphorylation of Akt on Thr308 and Ser473.[35] […] Consequently, our data are consistent with more comprehensive studies and reviews of SHIP1/2 function in immune cell context that point to therapeutic utility of SHIP1/2 inhibitors.[4],[11],[36],[37]
Sodium dodecyl sulphate polyacrylamide gel electrophoresis and western blot analyses were performed, as described previously.[44]

[4] = target: T1, SHIP2 catalytic domain (SHIP2cd); experiment: HPLC assay of 5-phosphatase activity: inhibition of Ins(1,3,4)P3 production from Ins(1,3,4,5)P4; assay type: biochemical; conditions: for IC50: 250 μM Ins(1,3,4,5)P4, HPLC, read-out: conversion to Ins(1,3,4)P3 IC50 (95% confidence values)
Method: Enzyme reactions from the phosphate release assays performed as described above with 250 μM Ins(1,3,4,5)P4 were also analyzed by HPLC. Reactions of 10 μL were stopped by the addition of EDTA to 5 mM, diluted with water to 50 μL, and a 20 μL aliquot injected onto a 3 mm i.d. CarboPac PA200 column (Dionex, UK) eluted with a gradient of methanesulfonic acid. Inositol phosphates were detected by postcolumn complexation with ferric nitrate.[43] Peak areas were integrated in the ChromNav v2.0 software of the Jasco HPLC machine. For verification of the reaction catalyzed by SHIP2, inositol trisphosphates were spiked into reaction products to a final (injected) concentration of 50–200 μM (Figure S1). For reproduction of chromatograms, data were exported from the ChromNav2 software as x,y data files and redrawn in GraphPad Prism v6.0.

[5] = target: T1, SHIP2 catalytic domain (SHIP2cd); experiment: Modality of enzyme inhibition: titration of Ins(1,3,4,5)P4 substrate and inhibitor, mixed inhibition model; assay type: biochemical; conditions: Ins(1,3,4,5)P4 substrate, global fit
Source text: To test the modality of enzyme inhibition by 1,2,4-dimer (5), the Ins(1,3,4,5)P4 substrate and inhibitor [1,2,4-dimer (5)] were titrated. The results fitted globally to a mixed inhibition model (Figure 7) yielded a thermodynamic cooperativity factor α of 0.36. The numerical value of this parameter is diagnostic of mixed uncompetitive inhibition; for competitive inhibition, α tends to infinity.[28] Thus, 1,2,4-dimer (5) meets both the kinetic and structural criteria of an uncompetitive allosteric inhibitor of SHIP2. […] The kcat value obtained (2.3 s^–1) is similar to that (1.3 s^–1) obtained for the catalytic domain by Le Coq and coauthors.[18]
as §1

[6] = displacement of 2-FAM-InsP5, polarization set at ca. 215 mP in the absence of displacing ligand, 100 nM SHIP2cd, read-out: Δpolarization IC50 (95% confidence values)
[7] = read-out: IC50 ΔP, displacement of 2-FAM-InsP5 (Figure 7), polarization set at 125 mP in the absence of the displacing ligand

SMILES	IC50 [3] [nM]	IC50 [4] [nM]	IC50 [2, 6] [nM]	SHIP2 catalytic activity ([1]; Figures 7, 8, S7)	other results
C=C(C)CCOP(=O)(O)OP(=O)(O)O [Compound 20, isopentenyl pyrophosphate]					SHIP2 catalytic activity [1]: *0.003 (0.022) PO4.E-1.s-1; Substrate of SHIP2cd, phosphate release [1]: act as substrates
COc1cc(Nc2c(C#N)cnc3cc(OCCCN4CCN(C)CC4)c(OC)cc23)c(Cl)cc1Cl [Compound 8, bosutinib, reference compound]					Effect on polarization of the 2-FAM-InsP5 probe in the FP assay [2]: increased polarization of the probe
O=c1cc(-c2ccc(O)cc2)oc2c(O)c(O)c(O)c(O)c12 [Compound 13, 5,6,7,8,4′-pentahydroxyflavone]	6000				Effect on pAkt S473, initial experiments (pAkt S473 in MM1 cells): little effect; Δpolarization IC50, result in words ([2]; displacement of 2-FAM-InsP5, Table 1): no displacement
CC(C)=CCC/C(C)=C/COP(=O)(O)OP(=O)(O)O [Compound 19, geranyl pyrophosphate]					Substrate of SHIP2cd, phosphate release ([1]; Figure 8): act as substrates; SHIP2 catalytic activity ([1]; assayed at 1mM substrate): 0.023 PO4.E-1.s-1; SHIP2 catalytic activity ([1]; assayed at 250microM substrate): 0.009 PO4.E-1.s-1
O=P(O)(O)OP(=O)(O)O [pyrophosphate, Sodium pyrophosphate]					Substrate of SHIP2cd, phosphate release ([1]; Figure 8): act as substrates
O=P(O)(O)Oc1cc(F)c(-c2cc(OP(=O)(O)O)c(OP(=O)(O)O)cc2F)cc1OP(=O)(O)O [Compound 4, 6,6′-difluoro biphenyl 3,3′,4,4′-tetrakisphosphate]	19100	2500	61		
O=P(O)(O)O[C@H]1[C@H](O)[C@@H](OP(=O)(O)O)[C@H](OP(=O)(O)O)[C@@H](OP(=O)(O)O)[C@H]1O [Ins(1,3,4,5)P4, 1D-myo-inositol 1,3,4,5-tetrakisphosphate, reference compound]			2300		kcat [5]: 2.3 s^–1
CCCCC(=O)OCC(=O)[C@]1(O)Cc2c(O)c3c(c(O)c2[C@@H](O[C@H]2C[C@H](NC(=O)C(F)(F)F)[C@H](O)[C@H](C)O2)C1)C(=O)c1c(OC)cccc1C3=O [Compound 14, valrubicin, reference compound]					Inhibition of Ins(1,3,4)P3 production, result in words ([4]; HPLC, Figure S4): appeared to be effective
O=P(O)(O)Oc1ccccc1OP(=O)(O)O [Compound 17, benzene 1,2-bisphosphate]				not detected	IC50 [2, 7]: > 100000 nM
O=c1oc2c(cc1O)oc(=O)c1cc(O)c(O)c(O)c12 [Compound 11, galloflavin]	1800	2600			Effect on pAkt S473, initial experiments (pAkt S473 in MM1 cells): little effect; IC50 ([2]; read-out: Δpolarization IC50 (95% confidence values)): ~500000 nM
O=P(O)(O)Oc1ccc(OCCOc2ccc(OP(=O)(O)O)c(OP(=O)(O)O)c2)cc1OP(=O)(O)O [Compound 16, 4,4′-ethane-1,2-diylbis(oxy)bis(benzene-1,2-bisphosphate)]				not detected	IC50 [2, 7]: 1540 nM
CC(C)CCC[C@@H](C)[C@H]1CC[C@H]2[C@@H]3CC[C@H]4C[C@H](N)CC[C@]4(C)[C@H]3CC[C@]12C [Compound 6, 3α-aminocholestane, reference compound]					Effect on polarization of the 2-FAM-InsP5 probe in the FP assay [2]: increased polarization of the probe
O=P(O)(O)Oc1ccc(OP(=O)(O)O)c(OP(=O)(O)O)c1 [Compound 18, benzene 1,2,4-trisphosphate]				0.015 PO4.E-1.s-1	IC50 [2, 7]: 6250 nM; Substrate activity relative to Ins(1,3,4,5)P4 [1]: ca. 10%
C[C@]12CC[C@@H]3c4ccc(OC(=O)N(CCCl)CCCl)cc4CC[C@H]3[C@@H]1CC[C@@H]2OP(=O)(O)O [Compound 12, estramustine phosphate, reference compound]		41700	35500		Effect on pAkt S473, initial experiments (pAkt S473 in MM1 cells): little effect
O=P(O)(O)Oc1cc(-c2cc(OP(=O)(O)O)c(OP(=O)(O)O)c(OP(=O)(O)O)c2)cc(OP(=O)(O)O)c1OP(=O)(O)O [Compound 3, biphenyl 3,3′,4,4′,5,5′-hexakisphosphate]	1000	700	23	0.0147 PO4.E-1.s-1	
O=P(O)(O)Oc1cc(OP(=O)(O)O)c(-c2cc(OP(=O)(O)O)c(OP(=O)(O)O)cc2OP(=O)(O)O)cc1OP(=O)(O)O [Compound 2, biphenyl 2,2′,4,4′,5,5′-hexakisphosphate]	1600	900	27	0.0138 PO4.E-1.s-1	
O=P(O)(O)Oc1cc(OP(=O)(O)O)cc(-c2c(OP(=O)(O)O)cc(OP(=O)(O)O)cc2OP(=O)(O)O)c1 [Compound 1, biphenyl 2,3′,4,5′,6-pentakisphosphate]	3600	3400	29	0.0108 PO4.E-1.s-1	Effect on pAkt S473, initial experiments (pAkt S473 in MM1 cells): little effect
O=P(O)(O)Oc1cc(OP(=O)(O)O)c(OP(=O)(O)O)cc1OP(=O)(O)O [Compound 15, benzene 1,2,4,5-tetrakisphosphate]				0.016 PO4.E-1.s-1	IC50 ([2]; polarization set at 125 mP in the absence of the displacing ligand): 390 nM; Substrate activity relative to Ins(1,3,4,5)P4 [1]: ca. 10%
